{"source": "patent US7160684B2", "about": "“Methods of selecting compounds for modulation of bladder function” (Wyeth, priority 2000, dated 2007)", "key": {"[1]": {"system": "isolated rat bladder strips", "test": "Isolated rat bladder strip contraction", "details": "Rattus norvegicus, n=4", "protocol": "Male Sprague-Dawley rats (200–400 grams) are euthanized by CO2 inhalation and exsanguination. Their urinary bladders are rapidly removed and placed in […] physiological salt solution (PSS) that contained the following (mM): NaCl (118.4), KCl (5), CaCl2 (2.5), MgSO4 (1.2), KH2PO4 (1.2), NaHCO3 (24.9) and D-glucose (11.1) gassed with O2/CO2 (95% /5%) to achieve a pH of 7.4. The dome of the bladder is isolated from the trigon region and this tissue is then cut into 4–5 mm wide by 10 mm long strips. One end is secured to the bottom of a water jacketed tissue bath and the other to a GRASS isometric force transducer (Grass Instruments, Quincy, Mass.). Tissues are pretensioned (0.25 to 0.5 grams), and after 30 minutes of equilibration are contracted with an additional 15 mM KCl (total of 20 mM) and again allowed to equilibrate until the preparations are contracting steadily. Any of a variety of compounds are administered directly into the tissue baths as sequential concentrations. Transducer signals are digitized (12 bit resolution) and analyzed on-line using a 586-based computer and custom software. The area under the contraction curve (AUC) is used as a measure of contractility since the spontaneous bladder contractions are irregular in amplitude and frequency. A 5-minute AUC value is taken 30 minutes after administration of each compound concentration to the tissue bath.\nWe isolated rat bladder strips from male Sprague-Dawley rats as previously described, (Wojdan, A., Freeden, C., Woods, M., Oshiro, G., Spinelli, W. et al., J Pharmacol Exp Therap 289: 1410–1418 (1999)) and precontracted them with 20 mM KCl. The KCNQ channel agonist retigabine, was added to the tissue bath in increasing concentrations, and area under the contraction curve was analyzed.\nIn another study, isolated rat bladder strips were precontracted with 60 mM KCl (FIG. 1).\nThe difference in IC50s between 20 and 60 mM KCl depolarizations are consistent with a potassium channel opening mechanism.\n(§1) Rat bladder strips were isolated and prepared as previously described (Wojdan, A., Freeden, C., Woods, M., Oshiro, G., Spinelli, W. et al., J Pharmacol ExpTherap 289:1410–1418 (1999)). Preparations were contracted with either 20 or 60 mM KCl, or 200 nM carbachol. A five minute area under the contraction curve was acquired 20 minutes after addition of each concentration of retigabine using a 12 bit D/A and a 586 based personal computer running custom software. Message for KCNQ subunits was probed using quantitative rtPCR on an ABI PRISM 7700 Sequence Detection System (TAQMAN). Forward and reverse primers and TAQMAN probes were designed using published RNA sequences for human KCNQ1–5 and rat KCNQ 1–4 listed within the NCBI data base. Since no rat sequence for KCNQ5 were currently published, probes and primers were designed by BLAST analysis of rat Expressed Sequence Tags (EST) using the known mouse KNCQ5 sequence. From homologous EST sequences, a contiguous sequence of 384 base pairs was constructed. Probes and primers were designed against this sequence. BLAST analysis of our rat KCNQ5 probes and primer were selective for mouse and human KCNQ5 sequences. PCR products were confirmed by gel electrophoresis (data not shown). Cells for electrophysiology were prepared from rat bladder smooth muscle as previously described (Wojdan et al., 1999). Human bladder smooth muscle cells were obtained from Clonetics, San Diego, Calif. […]"}, "rat bladder micturition": {"system": "rat bladder micturition", "test": "Rat bladder cystometry, hyperreflexic bladder (0.25% acetic acid infusate)", "assay_type": "in vivo", "protocol": "Micturition frequency is enhanced by the stimulation of sensory afferents using a dilute acetic acid solution in the cystometric infusate as previously described by Birder and de Groat (Birder L A. de Groat W C. Increased c-fos expression in spinal neurons after irritation of the lower urinary tract in the rat. J Neuroscience 12: 4878–89, (1992)). Briefly, female Sprague-Dawley rats (190–210 g) are anesthetized with urethane (lg/kg/10 mL, i. p.; 1 g/kg/10 mL, s. q.). The trachea is cannulated with PE205 to ensure a patent airway. The external jugular is cannulated with PE50 tubing for administration of compound. The bladder is exposed through a midline incision, and an angiocatheter (24 g, TEFLON), is heat flared at the end and inserted into the dome of the bladder and secured with 4-0 silk. The bladder is flushed with normal saline and allowed to equilibrate for 1 hour before cystometry is performed. Using a “T” connector, the bladder catheter is connected to a Statham pressure transducer (Model P23Db) and to a Harvard infusion pump. Cystometric recordings are monitored on a GRASS polygraph while infusing the bladder with saline containing 0.25% acetic acid at a rate of 2.4 mL/hr. for one hour. Next, compound is administered intravenously and the cystometry monitored for an additional 2 hours. The following cystometric parameters are recorded: micturition interval, micturition amplitude, micturition threshold pressure, bladder capacity, bladder compliance and the number of spontaneous bladder contractions (SBC) during the filling phase. The control period is taken as the 30 minute time period of acetic acid saline perfusion before dosing.\nRat bladder micturition frequency (enhanced by infusate containing 0.25% acetic acid (Birder, L. A., & deGroat, W., C. Increased c-fos expression in spinal neurons after irritation of the lower urinary tract in the rat. J Neurosc 12: 4878–4889 (1992))) was inhibited by retigabine in a dose-dependent (0.1–10 mg/kg, i.p.) manner. At 10 mg/kg, micturition was blocked in 100% of animals dosed; the population ED50 was 1–2 mg/kg (n=5–8). Micturition block lasted for up to 90 minutes (FIG. 4a).\nas §1, with “Calif. Cells were removed from culture with trypsin and added directly into the recording chamber. All recordings were made at 320 C and acquired on a 586 based personal computer using pCLAMP (Axon Instruments) software. Current clamp recordings were performed with nystatin access as previously described (Wojdan et al.).” for “Calif.”"}}, "note": "Read-outs that look alike come from different tables or passages of the source.", "data": [{"smiles": "CCOC(=O)Nc1ccc(NCc2ccc(F)cc2)cc1N", "note": "[retigabine, N-[2-amino-4-(4-fluorobenzylamino)-phenyl]carbamic acid ethyl ester]", "values": [{"measurement": "IC50", "setting": "[1]; read-out: IC50 for inhibition of isolated rat bladder strip contractions, precontracted with 20 mM KCl, area under the contraction curve", "value": "1.4 ± 0.1", "unit": "µM"}, {"measurement": "IC50", "setting": "[1]; read-out: IC50 for inhibition of isolated rat bladder strip contractions, precontracted with 60 mM KCl", "value": "21.8 ± 0.8", "unit": "µM"}, {"measurement": "frequency of spontaneous contractions during bladder filling", "setting": "rat bladder micturition; 0.1 mg/kg, in comparison to the control", "value": "significantly reduced"}, {"measurement": "inhibition of spontaneous contractions", "setting": "rat bladder micturition; 1 mg/kg, i.p., p<0.05", "value": "43.5±14.1", "unit": "%"}, {"measurement": "animals in which micturition was blocked", "setting": "rat bladder micturition; 10 mg/kg, i.p.", "value": 100, "unit": "%"}, {"measurement": "micturition", "setting": "rat bladder micturition; 10 mg/kg, i.p., within minutes of dosing, four rats", "value": "completely blocked"}, {"measurement": "ED50", "setting": "rat bladder micturition; Rattus norvegicus, ip, n=5–8, read-out: population ED50 for micturition block", "value": "1 to 2", "unit": "mg/kg"}, {"measurement": "micturition frequency", "setting": "rat bladder micturition; dose-dependent, 0.1–10 mg/kg, i.p.", "value": "inhibited"}, {"measurement": "duration of micturition block", "setting": "rat bladder micturition; i.p., FIG. 4a", "value": "up to 90 minutes"}]}]}
